This is an account of results in patent publication US11034650B2, “Compounds useful for treating a Mannheimia haemolytica or Histophilus somni infection” (Intervet Inc., priority 2016, dated 2021).

Each structure is given as a SMILES string. Converted amounts (≈) assume the structure as drawn.

Assay type in all cases: cell-based
The test system of test [1] is Mannheimia haemolytica MH 10720 (154, BRD field isolate). The test can be described thus: MIC, broth-microdilution (CLSI VET01-A4), strain MH 10720. Conditions: Mannheimia haemolytica strain MH 10720, broth-microdilution; unit assumed. Put shortly:
(§1)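 Growth inhibition is scored visually on a doubling dilution series. The reported MIC corresponds to the lowest concentration free of turbidity, with results assessed under CLSI VET01-S3.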

The test system of test [2] is Pasteurella multocida PM 10775 (080130003051, BRD field isolate). Nature of the test: MIC, broth-microdilution (CLSI VET01-A4), strain PM 10775. The settings on record: Pasteurella multocida strain PM 10775, broth-microdilution; unit assumed. Summed up: as §1
Test [3] concerns Pasteurella multocida PM 6267 (P 2225 (L386), reference strain, mouse infection strain). Nature of the test: MIC, broth-microdilution (CLSI VET01-A4), strain PM 6267. The settings on record: Pasteurella multocida strain PM 6267, broth-microdilution; unit assumed. Put shortly:
as §1

The test system of test [4] is Pasteurella multocida PM 12080 (IV102277-0093, BRD field isolate). The test can be described thus: MIC, broth-microdilution (CLSI VET01-A4), strain PM 12080. The settings on record: Pasteurella multocida strain PM 12080, broth-microdilution; unit assumed. Put shortly: as §1
Test [5] deals with Mannheimia haemolytica MH 13093 (XB0472-6014.1, BRD field isolate). The test can be described thus: MIC, broth-microdilution (CLSI VET01-A4), strain MH 13093. The settings on record: Mannheimia haemolytica strain MH 13093, broth-microdilution; unit assumed. Summed up:
as §1

Test [6] concerns Mannheimia haemolytica MH 12587 (1071, BRD field isolate, macrolide-resistance: erm+, E+). Nature of the test: MIC, broth-microdilution (CLSI VET01-A4), strain MH 12587. Conditions: Mannheimia haemolytica strain MH 12587, broth-microdilution; unit assumed. Summed up: as §1
The subject of test [7] is Mannheimia haemolytica MH 13065 (XB0446-6003.9, BRD field isolate). Nature of the test: MIC, broth-microdilution (CLSI VET01-A4), strain MH 13065. The settings on record: Mannheimia haemolytica strain MH 13065, broth-microdilution; unit assumed. Summed up: as §1
Test [8] relates to Pasteurella multocida PM 6391 (ATCC 43137, reference strain). The test can be described thus: MIC, broth-microdilution (CLSI VET01-A4), strain PM 6391. Conditions: Pasteurella multocida strain PM 6391, broth-microdilution; unit assumed. Put shortly: as §1
Test [9] relates to Mannheimia haemolytica MH 6357 (M7/2, reference strain, cattle infection strain). The test can be described thus: MIC, broth-microdilution (CLSI VET01-A4), strain MH 6357. The settings on record: Mannheimia haemolytica strain MH 6357, broth-microdilution; unit assumed. Summed up:
as §1

Test [10] deals with Mannheimia haemolytica MH 6374 (ATCC 33396, reference strain). Nature of the test: MIC, broth-microdilution (CLSI VET01-A4), strain MH 6374. The settings on record: Mannheimia haemolytica strain MH 6374, broth-microdilution; unit assumed. Summed up:
as §1

Take `O=C(N[C@@H](CO)C(=O)NO)c1ccc(C#Cc2ccc(CNCc3ccccn3)cc2)cc1` [Compound 158]: the MIC MH 10720 in [1] is 0.8 µg/mL (≈ 1.8 µM). In addition, the MIC PM 10775 in test [2] is at most 0.1 µg/mL. Also, in test [3], the MIC PM 6267 came out at 0.4 µg/mL (≈ 0.9 µM). Further, the MIC PM 12080 in test [4] amounted to 0.8 µg/mL (≈ 1.8 µM). Moreover, the MIC MH 13093 in test [5] was determined as 6.3 µg/mL (≈ 14.2 µM). The compound also yielded an MIC MH 12587 in test [6] of 6.3 µg/mL (≈ 14.2 µM). This compound displayed an MIC MH 13065 in test [7] of 6.3 µg/mL (≈ 14.2 µM). Besides, the MIC PM 6391 in [8] was 0.8 µg/mL (≈ 1.8 µM). The compound further registered an MIC MH 6357 in [9] of 1.6 µg/mL (≈ 3.6 µM). In [10], the MIC MH 6374 stood at 3.1 µg/mL (≈ 6.97 µM).
In the case of `O=C(N[C@@H](CO)C(=O)NO)c1ccc(C#Cc2ccc(CNCc3ccco3)cc2)cc1` [Compound 159], in test [1], the MIC MH 10720 is 0.4 µg/mL (≈ 0.923 µM). Moreover, the MIC PM 10775 in test [2] was at most 0.1 µg/mL. Besides, the MIC PM 6267 in test [3] came out at 0.2 µg/mL (≈ 0.461 µM). In test [4], this compound returned an MIC PM 12080 of 0.4 µg/mL (≈ 0.923 µM). Further, the MIC MH 13093 in [5] was 3.1 µg/mL (≈ 7.15 µM). The MIC MH 12587 in test [6] came out at 3.1 µg/mL (≈ 7.15 µM). Besides, the MIC MH 13065 in test [7] worked out at 3.1 µg/mL (≈ 7.15 µM). The compound further had an MIC PM 6391 in [8] of 0.8 µg/mL (≈ 1.85 µM). This compound also came in with an MIC MH 6357 in test [9] of 1.6 µg/mL (≈ 3.69 µM). Moreover, the MIC MH 6374 in [10] is 1.6 µg/mL (≈ 3.69 µM).
The compound `O=C(N[C@@H](CO)C(=O)NO)c1ccc(C#Cc2ccc(CNCc3cccs3)cc2)cc1` [Compound 160] returned an MIC MH 10720 in test [1] of 0.4 µg/mL (≈ 0.89 µM). For the same compound, in test [2], the MIC PM 10775 was at most 0.1 µg/mL. Moreover, the MIC PM 6267 in [3] is at most 0.1 µg/mL. This compound displayed an MIC PM 12080 in test [4] of 0.2 µg/mL (≈ 0.445 µM). This compound returned an MIC MH 13093 in test [5] of 3.1 µg/mL (≈ 6.9 µM). This compound also came in with an MIC MH 12587 in test [6] of 3.1 µg/mL (≈ 6.9 µM). Also, the MIC MH 13065 in test [7] came out at 1.6 µg/mL (≈ 3.56 µM). The same compound registered an MIC PM 6391 in [8] of 0.4 µg/mL (≈ 0.89 µM). In addition, the MIC MH 6357 in [9] worked out at 0.8 µg/mL (≈ 1.78 µM). The same compound had an MIC MH 6374 in test [10] of 0.8 µg/mL (≈ 1.78 µM).
For `Cc1ccc(CNCc2ccc(C#Cc3ccc(C(=O)N[C@@H](CO)C(=O)NO)cc3)cc2)cc1` [Compound 161], in [1], the MIC MH 10720 turned out to be 0.8 µg/mL (≈ 1.75 µM). This compound registered an MIC PM 10775 in [2] of at most 0.1 µg/mL. Moreover, in test [3], the MIC PM 6267 was 0.2 µg/mL (≈ 0.437 µM). The MIC PM 12080 in test [4] was 0.2 µg/mL (≈ 0.437 µM). In test [5], this compound yielded an MIC MH 13093 of 6.3 µg/mL (≈ 13.8 µM). The compound also returned an MIC MH 12587 in test [6] of 6.3 µg/mL (≈ 13.8 µM). Also, in [7], the MIC MH 13065 turned out to be 3.1 µg/mL (≈ 6.78 µM). For the same compound, the MIC PM 6391 in test [8] came out at 0.8 µg/mL (≈ 1.75 µM). In [9], this compound registered an MIC MH 6357 of 1.6 µg/mL (≈ 3.5 µM). This compound gave an MIC MH 6374 in test [10] of 1.6 µg/mL (≈ 3.5 µM).
In [1], `O=C(N[C@@H](CO)C(=O)NO)c1ccc(C#Cc2ccc(CNCC3CCCO3)cc2)cc1` (stereo partly shown) [Compound 162] showed an MIC MH 10720 of 3.1 µg/mL (≈ 7.09 µM). The compound also had an MIC PM 10775 in [2] of at most 0.1 µg/mL. The compound also gave an MIC PM 6267 in test [3] of 0.8 µg/mL (≈ 1.83 µM). Further, the MIC PM 12080 in test [4] turned out to be 1.6 µg/mL (≈ 3.66 µM). The MIC MH 13093 in test [5] amounted to 12.5 µg/mL (≈ 28.6 µM). In addition, the MIC MH 12587 in test [6] was 12.5 µg/mL (≈ 28.6 µM). Besides, the MIC MH 13065 in test [7] was determined as 12.5 µg/mL (≈ 28.6 µM). Further, the MIC PM 6391 in test [8] was found to be 3.1 µg/mL (≈ 7.09 µM). This compound came in with an MIC MH 6357 in test [9] of 6.3 µg/mL (≈ 14.4 µM). In test [10], this compound came in with an MIC MH 6374 of 12.5 µg/mL (≈ 28.6 µM).
`COCC(C)NCc1ccc(C#Cc2ccc(C(=O)N[C@@H](CO)C(=O)NO)cc2)cc1` (stereo partly shown) [Compound 164]: the MIC MH 10720 in test [1] worked out at 1.6 µg/mL (≈ 3.76 µM). Moreover, the MIC PM 10775 in [2] was at most 0.1 µg/mL. This compound also registered an MIC PM 6267 in test [3] of 0.4 µg/mL (≈ 0.94 µM). Also, the MIC PM 12080 in [4] was 1.6 µg/mL (≈ 3.76 µM). The MIC MH 13093 in test [5] stood at 25 µg/mL (≈ 58.8 µM). The same compound gave an MIC MH 12587 in test [6] of 25 µg/mL (≈ 58.8 µM). The MIC MH 13065 in test [7] turned out to be 12.5 µg/mL (≈ 29.4 µM). Further, the MIC PM 6391 in [8] was 1.6 µg/mL (≈ 3.76 µM). This compound also came in with an MIC MH 6357 in test [9] of 6.3 µg/mL (≈ 14.8 µM). Also, the MIC MH 6374 in test [10] is 12.5 µg/mL (≈ 29.4 µM).
As for `CC1CN(Cc2ccc(C#Cc3ccc(C(=O)N[C@H](C(=O)NO)C(C)C)cc3)cc2)CC(C)O1` (stereo partly shown) [Compound 165], in test [1], the MIC MH 10720 amounted to 3.1 µg/mL (≈ 6.69 µM). In test [2], this compound had an MIC PM 10775 of at most 0.1 µg/mL. The MIC PM 6267 in [3] was at most 0.1 µg/mL. Further, the MIC PM 12080 in test [4] is at most 0.1 µg/mL. This compound also gave an MIC MH 13093 in test [5] of 12.5 µg/mL (≈ 27 µM). Besides, the MIC MH 12587 in test [6] turned out to be 25 µg/mL (≈ 53.9 µM). Also, the MIC MH 13065 in test [7] came to 12.5 µg/mL (≈ 27 µM). In addition, the MIC PM 6391 in [8] was 0.2 µg/mL (≈ 0.431 µM). Besides, the MIC MH 6357 in test [9] came to 6.3 µg/mL (≈ 13.6 µM). In test [10], the MIC MH 6374 came out at 12.5 µg/mL (≈ 27 µM).
